Experimental data published in patent US10119972B2, “Reactive labelling compounds and uses thereof” (Academia Sinica, priority 2014, dated 2018).
“Also recorded” adds a separate entry of the source.

Experiments:
[1] = SPAAC reaction kinetics of 101 with N-azidoacetylmannosamine monitored by 1H-NMR; assay type: physicochemical; settings: 20 mM, CD3OD-D2O (5:1, v/v), 25° C.
Method: To evaluate the feasibility of compound 101 as a reagent for the SPAAC-based fluorescence labeling, its reaction scope and kinetics using benzyl azide as a model substrate was first studied. The SPAAC reaction of 101 with benzyl azide in acetonitrile was completed in 2 h at room temperature to give triazole 111 in 95% yield (Scheme 100). The reactivity of 101 with benzyl azide (1:1) in CD3CN was determined by integration of multiple chemical shifts in the ^1H-NMR spectrum to yield a second-order rate constant of 0.012 M^−1s^−1 at 25° C. […]
Part B: Compound 101 and N-azidoacetylmannosamine were predissolved in CD3OD/D2O (5:1, v/v), and then mixed at equimolar concentration of 20 mM. The reaction was monitored by ^1H-NMR analysis over a period of 1 h. The concentration of each component was determined, based on the concentration of initial compound 101, by integration at multiple chemical shifts in the ^1H-NMR spectrum. […] (M^−1) vs. time (sec), a second order rate constant in unit of M^−1s^−1 was determined using linear regression analysis. […]
FIG. 18 describes a Plot of 1/[101] vs. time for the reaction of compound 101 and N-azidoacetylmannosamine in a solution of CD3OD-D2O (5:1, v/v) as monitored by ^1H-NMR.

[2] = Fluorescence time course of ligation of 101 with ManNAz; assay type: physicochemical; settings: 101 (30 μM) with ManNAz (30 μM), PBS buffer containing 10% DMSO
Method: To probe the SPAAC reaction under the conditions that would be more typical for biomolecule labeling, we investigated the fluorescence response and time course for the reaction of 101 with ManNAz.
FIG. 16 describes (a) Absorption and Fluorescence emission spectra (λex=330 nm) of 101 (black), 111 (blue) and 112 (red) (45 μM, PBS buffer containing 10% DMSO, pH 7.4). (b) Time course of normalized fluorescence intensity at 435 nm (λex=330 nm) for the ligation reaction of 101 (30 μM) with N-azidoacetylmannosamine (30 μM) in PBS buffer containing 10% DMSO.
A solution of probe 101 (0.075 μmol) and N-azidoacetylmannosamine (0.075 μmol) in a mixture of 10% DMSO in PBS buffer (2.5 mL) was incubated at 37° C. The fluorescence emission intensity at 435 nm upon excitation at 330 nm was monitored in 5 min intervals. For each point the fluorescence intensity was measured over a period of 5 sec and averaged over a total of 3 points. In a control experiment the same conditions were used except that N-acetylmannosamine (0.075 μmol) was added to the solution.

[3] = test system: living cells; assay: Cytotoxicity of probe in living cells; assay type: cell-based
[4] = test system: CL1-5 cells; assay: Dual fluorescence labeling in cells (SPAAC with CuAAC), confocal microscopy; assay type: cell-based; settings: CL1-5 cells with Ac4ManNAl and Ac4GlcNAz; 100 μM coumOCT, 0.1 μM AzBOCEt
Method: A dual-labeling experiment was performed using SPAAC in combination with CuAAC for the concurrent fluorescence labeling of two different metabolically incorporated glycoconjugates. Peracetylated N-acetylmannosamine (Ac4ManNAc) and peracetylated N-acetylglucosamine (Ac4GlcNAc) were employed as the control sugars. ManNAc is converted metabolically to sialic acid that is found as a terminal monosaccharide of glycoproteins and glycolipids in cell, whereas GlcNAz is an internal monosaccharide that abundant in the N- and O-linked glycans produced in the endoplasmic reticulum and Golgi. CL1-5 cells were incubated in the presence of both alkyne-containing sugar (Ac4ManNAl) and azido-containing sugar (Ac4GlcNAz) for three days. The cells were stained by SPAAC with coumOCT (for azido sugars), followed by CuAAC with AzBOCEt^6j (for alkynyl sugars), and investigated by confocal microscopy (FIG. 24).
(A) Illustration of the cell labeling experiments using Ac4ManNAl, Ac4GlcNAz, 101 and AzBOCEt. CL1-5 cells were incubated with 100 μM of Ac4ManNAl and Ac4GlcNAz or control sugars (Ac4ManNAc and Ac4GlcNAc) for 3 days, which were treated with 100 μM of probe 101 for 0.5 h under SPAAC conditions, and then incubated with 0.1 μM of AzBOCEt for 1 h under CuAAC conditions. (B) Dual fluorescence imaging in CL1-5 cells. […]

## O=c1ccc2cc3c(cc2o1)C#CCCCC3 [Compound 101, 6,7,8,9-Tetrahydro-10,11-didehydro-cycloocta[g]chromen-2(2H)-one]
[1]
  second-order rate constant: 0.010 M⁻¹ s⁻¹
[2]; 435 nm (λex=330 nm)
  time for fluorescence intensity to reach a plateau: less than 1 h
[2]; in 40 min
  ManNAz consumed: more than 90%
[3]
  cytotoxicity: low cytotoxicity; also recorded: nontoxic
[4]
  localization of labeled glycoconjugates: shown only in the cytosol
